Source: US12240844B2 (Voronoi, Inc., priority 2019, dated 2025)
pIC50: −log10 of the molar value.

Assays:
Format in all cases: biochemical
LRRK2 (G2019S) = LRRK2 (G2019S) (Homo sapiens, UniProt Q5S007, G2019S); test: LRRK2 G2019S enzyme inhibition, ADP-Glo kinase assay; parameters: purchased SignalChem L10-12GG
Description: In order to evaluate the inhibitory activity of the compounds according to the present invention on LRRK2, LRRK2 (G2019S), DYRK1, CLK1 and TTK kinases, the following experiment was performed.
Example compounds were reacted with the purified human LRRK2 G2019S (L10-12GG, SignalChem) enzyme to evaluate the enzyme inhibitory ability as follows. The reaction buffer was used as the composition of 40 mM Tris-HCl pH7.4, 20 mM MgCl2, 0.5 mg/ml BSA and 50 μM DTT, and the reaction of all test materials was performed on the reaction buffer. The compound was diluted with 10 mM DMSO stock in 12 steps by a serial dilution method, and the enzyme activity was measured at the final compound concentrations of 50, 10, 2, 0.4, 0.08, 0.016, 0.0032, 0.00064, 0.000128, 0.0000256, 0.00000512 and 0.000001024 μM. In the test, the human LRRK2 G2019S (16 ng) enzyme was reacted with the purified ATP (25 μM) and an enzyme substrate (0.2 μg) at 25° C. for 2 hours, and then the enzyme activity was identified using the in vitro ADP-Glo™ kinase assay (promega). The enzyme activity reaction liquid, an ADP-Glo reaction liquid and an enzyme potency detection solution were reacted in a ratio of 2:2:1, and the degree of inhibition of enzyme activity was measured by Luminescence. The degree of inhibition of enzyme activity according to the treatment concentrations of the respective compounds was calculated based on the fluorescence of the enzyme activity of a solvent control group that was not treated with the compound, where the concentration of each compound to inhibit enzyme activity inhibition by 50% was determined as an IC50 (nM) value and obtained using Prism (Version 5.01, GraphPad) software.
In the table below, the following designations were used for the evaluation of enzyme inhibitory ability.

human GST-CLK1 (129-end) = biological target: T1, human GST-CLK1 (129-end) (Homo sapiens, UniProt P49759); test: GST-CLK1 enzyme inhibition, ADP-Glo kinase assay; settings: ATP 10 uM
T1 construct: purified human GST-CLK1 (129-end, Signalchem) enzyme; GST; purchased Signalchem
Outline: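 ADP formation was read by ADP-Glo luminescence after 1 h at 25° C with 3 ng human GST-CLK1 (129-end), substrate and 10 uM ATP in Tris pH 7.4 buffer containing MgCl2, BSA and DTT. Inhibition relative to untreated solvent control gave IC50 (nM), run in triplicate.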

[1] = biological target: T2, human GST-DYRK1A (full length) (Homo sapiens, UniProt Q13627); test: GST-DYRK1A enzyme inhibition, ADP-Glo kinase assay; settings: read-out: DYRK1 IC50
T2 construct: purified human GST-DYRK1A (full length, Thermo scientifics) enzyme; GST; purchased Thermo scientifics
Outline: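 ADP-Glo luminescence quantified kinase activity after a 1 h, 25° C reaction of 10 ng full-length GST-tagged human DYRK1A, substrate and 10 uM ATP in Tris-HCl buffer pH 7.4 with MgCl2, BSA and DTT. Triplicate IC50 values (nM) calculated relative to untreated solvent control.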

Sequence of LRRK2 (G2019S) (Q5S007 970-2527 G2019S limits assumed): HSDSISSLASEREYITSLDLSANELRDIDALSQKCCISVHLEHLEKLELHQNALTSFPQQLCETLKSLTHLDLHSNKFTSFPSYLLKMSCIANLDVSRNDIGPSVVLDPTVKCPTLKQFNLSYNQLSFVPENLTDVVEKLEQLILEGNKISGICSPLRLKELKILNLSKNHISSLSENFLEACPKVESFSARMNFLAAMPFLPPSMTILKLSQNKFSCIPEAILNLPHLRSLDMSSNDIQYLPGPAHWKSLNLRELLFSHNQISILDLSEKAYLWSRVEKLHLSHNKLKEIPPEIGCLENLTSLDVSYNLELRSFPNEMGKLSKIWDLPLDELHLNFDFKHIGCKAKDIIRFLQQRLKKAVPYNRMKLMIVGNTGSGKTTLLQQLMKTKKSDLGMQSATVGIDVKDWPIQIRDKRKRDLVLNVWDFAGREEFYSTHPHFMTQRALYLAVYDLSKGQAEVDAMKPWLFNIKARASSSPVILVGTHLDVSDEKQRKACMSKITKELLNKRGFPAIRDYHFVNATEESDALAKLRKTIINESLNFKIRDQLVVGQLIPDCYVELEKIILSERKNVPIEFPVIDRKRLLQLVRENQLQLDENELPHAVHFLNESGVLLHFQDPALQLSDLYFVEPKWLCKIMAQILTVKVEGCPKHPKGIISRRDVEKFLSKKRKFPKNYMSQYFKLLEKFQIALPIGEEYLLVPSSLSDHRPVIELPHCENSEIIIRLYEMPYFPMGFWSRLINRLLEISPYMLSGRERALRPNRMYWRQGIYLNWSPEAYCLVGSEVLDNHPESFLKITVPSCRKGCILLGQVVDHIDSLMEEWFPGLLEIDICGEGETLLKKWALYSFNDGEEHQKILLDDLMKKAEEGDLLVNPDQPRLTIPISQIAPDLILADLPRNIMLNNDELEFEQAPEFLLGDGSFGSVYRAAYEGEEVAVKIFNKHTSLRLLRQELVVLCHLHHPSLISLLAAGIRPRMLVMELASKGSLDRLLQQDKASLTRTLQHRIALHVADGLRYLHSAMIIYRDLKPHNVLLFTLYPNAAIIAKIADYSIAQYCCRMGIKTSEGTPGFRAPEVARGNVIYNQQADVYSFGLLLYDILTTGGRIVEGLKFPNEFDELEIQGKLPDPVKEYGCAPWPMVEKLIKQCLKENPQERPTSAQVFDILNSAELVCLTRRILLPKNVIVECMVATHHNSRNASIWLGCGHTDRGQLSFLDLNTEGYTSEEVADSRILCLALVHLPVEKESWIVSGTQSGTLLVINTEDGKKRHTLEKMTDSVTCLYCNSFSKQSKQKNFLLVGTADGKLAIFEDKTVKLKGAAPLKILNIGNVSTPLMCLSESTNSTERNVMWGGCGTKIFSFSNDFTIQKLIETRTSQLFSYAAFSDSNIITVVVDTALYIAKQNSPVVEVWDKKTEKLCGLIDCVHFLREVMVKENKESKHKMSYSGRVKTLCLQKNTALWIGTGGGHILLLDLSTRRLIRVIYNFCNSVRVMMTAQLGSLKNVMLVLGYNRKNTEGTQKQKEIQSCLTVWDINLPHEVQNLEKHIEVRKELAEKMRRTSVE
T1 sequence (P49759 129-484 limits assumed): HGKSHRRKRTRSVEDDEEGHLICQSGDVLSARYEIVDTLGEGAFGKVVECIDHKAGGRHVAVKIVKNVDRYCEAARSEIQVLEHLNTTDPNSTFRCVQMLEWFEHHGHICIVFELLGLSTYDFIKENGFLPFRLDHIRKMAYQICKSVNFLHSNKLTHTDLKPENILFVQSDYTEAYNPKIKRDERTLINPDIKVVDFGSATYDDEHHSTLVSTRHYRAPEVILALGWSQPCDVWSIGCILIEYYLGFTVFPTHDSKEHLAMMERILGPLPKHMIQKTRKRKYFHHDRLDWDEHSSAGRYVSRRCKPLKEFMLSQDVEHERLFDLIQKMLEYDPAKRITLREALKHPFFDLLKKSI

| SMILES | pIC50 (LRRK2 (G2019S)) | pIC50 (human GST-CLK1 (129-end)) | pIC50 [1] |
| --- | --- | --- | --- |
| COc1cc(S(C)(=O)=O)ccc1Nc1cc(NC2CC2)c2cc[nH]c2n1 [Example 1, N^4-cyclopropyl-N^6-(2-methoxy-4-(methylsulfonyl)phenyl)-1H-pyrrolo[2,3-b]pyridine-4,6-diamine] | 6.00 to 6.52 | 6.00 to 6.52 | 6.00 to 6.52 |
| COc1cc(S(=O)(=O)N2CCOCC2)ccc1Nc1cc(NCCS(C)(=O)=O)c2c(Cl)c[nH]c2n1 [Example 72, 3-chloro-N^6-(2-methoxy-4-(morpholinosulfonyl)phenyl)-N^4-(2-(methylsulfonyl)ethyl)-1H-pyrrolo[2,3-b]pyridine-4,6-diamine] | 6.00 to 6.52 | 6.00 to 6.52 | 6.00 to 6.52 |
| CCNc1cc(Nc2ccc(C(=O)N3CCC4(CC3)CC4)c3c2OCC3)nc2[nH]cc(C(F)(F)F)c12 [Example 256, (7-((4-(ethylamino)-3-(trifluoromethyl)-1H-pyrrolo[2,3-b]pyridin-6-yl)amino)-2,3-dihydrobenzofuran-4-yl)(6-azaspiro[2.5]octan-6-yl)methanone] | 6.00 to 6.52 | 6.52 to 7.00 | 6.00 to 6.52 |
| CC(C)Nc1cc(Nc2ccc(C(=O)N3CCOCC3)c3c2OCCO3)nc2[nH]ccc12 [Example 5, (8-((4-(isopropylamino)-1H-pyrrolo[2,3-b]pyridin-6-yl)amino)-2,3-dihydrobenzo[b] [1,4]dioxin-5-yl)(morpholino) methanone] | > 7.00 | 6.00 to 6.52 | 6.00 to 6.52 |
| COc1cc(S(=O)(=O)N2CCOCC2)ccc1Nc1cc(NC(C)C)c2c(Cl)c[nH]c2n1 [Example 67, 3-chloro-N^4-isopropyl-N^6-(2-methoxy-4-(morpholinosulfonyl)phenyl)-1H-pyrrolo[2,3-b]pyridine-4,6-diamine] | 6.00 to 6.52 | 6.00 to 6.52 | 6.00 to 6.52 |
| COc1cc(S(C)(=O)=O)ccc1Nc1cc(NCCS(C)(=O)=O)c2cc[nH]c2n1 [Example 31, N^6-(2-methoxy-4-(methylsulfonyl)phenyl)-N^4-(2-(methylsulfonyl)ethyl)-1H-pyrrolo[2,3-b]pyridine-4,6-diamine] | 6.00 to 6.52 | 6.00 to 6.52 | 6.00 to 6.52 |
| C=CCN1CCN(C(=O)c2ccc(Nc3cc(NCC)c4c(C(F)(F)F)c[nH]c4n3)c3c2CCO3)CC1 [Example 252, (4-allylpiperazin-1-yl)(7-((4-(ethylamino)-3-(trifluoromethyl)-1H-pyrrolo[2,3-b]pyridin-6-yl)amino)-2,3-dihydrobenzofuran-4-yl)methanone] | > 7.00 | > 7.00 | > 7.00 |
| COc1cc(S(=O)(=O)N2CCC(N3CCOCC3)CC2)ccc1Nc1cc(NC2CC2)c2c(Cl)c[nH]c2n1 [Example 76, 3-chloro-N^4-cyclopropyl-N^6-(2-methoxy-4-((morpholinopiperidin-1-yl)sulfonyl)phenyl)-1H-pyrrolo[2,3-b]pyridine-4,6-diamine] | > 7.00 | 6.00 to 6.52 | 6.00 to 6.52 |
| CCNc1cc(Nc2ccc(C(=O)N3OCC[C@H]3c3cc(F)cc(F)c3)c3c2OCC3)nc2[nH]cc(C(F)(F)F)c12 [Example 246, (S)-(3-(3,5-difluorophenyl)isoxazolidin-2-yl)(7-((4-(ethylamino)-3-(trifluoromethyl)-1H-pyrrolo[2,3-b]pyridin-6-yl)amino)-2,3-dihydrobenzofuran-4-yl)methanone] | 6.00 to 6.52 | 6.00 to 6.52 | 6.00 to 6.52 |
| CCCNc1cc(Nc2ccc(S(=O)(=O)N3CCOCC3)cc2OC)nc2[nH]ccc12 [Example 12, N^6-(2-methoxy-4-(morpholinosulfonyl)phenyl)-N^4-propyl-1H-pyrrolo[2,3-b]pyridine-4,6-diamine 2,2,2-trifluoroacetate] | > 7.00 | 6.00 to 6.52 | 6.00 to 6.52 |
| COc1cc(S(=O)(=O)N2CCC(N3CCOCC3)CC2)ccc1Nc1cc(NCC(C)C)c2cc[nH]c2n1 [Example 21, N^4-isobutyl-N^6-(2-methoxy-4-((4-morpholinopiperidin-1-yl)sulfonyl)phenyl)-1H-pyrrolo[2,3-b]pyridine-4,6-diamine] | > 7.00 | 6.00 to 6.52 | 6.00 to 6.52 |
| COc1cc(S(=O)(=O)N2CCOCC2)ccc1Nc1cc(NCCS(C)(=O)=O)c2cc[nH]c2n1 [Example 17, N^6-(2-methoxy-4-(morpholinosulfonyl)phenyl)-N^4-(2-(methylsulfonyl)ethyl)-1H-pyrrolo[2,3-b]pyridine-4,6-diamine] | 6.00 to 6.52 | 6.00 to 6.52 | 6.00 to 6.52 |
| CCNc1cc(Nc2ccc(C(=O)N3CCOCC3)c3c2OCCO3)nc2[nH]ccc12 [Example 3, (8-((4-(ethylamino)-1H-pyrrolo[2,3-b]pyridin-6-yl)amino)-2,3-dihydrobenzo[b] [1,4]dioxin-5-yl)(morpholino) methanone 2,2,2-trifluoroacetate] | 6.52 to 7.00 | 6.00 to 6.52 | 6.00 to 6.52 |
| COc1cc(S(C)(=O)=O)ccc1Nc1cc(NCCS(C)(=O)=O)c2c(Cl)c[nH]c2n1 [Example 88, 3-chloro-N^6-(2-methoxy-4-(methylsulfonyl)phenyl)-N^4-(2-(methylsulfonyl)ethyl)-1H-pyrrolo[2,3-b]pyridine-4,6-diamine] | 6.00 to 6.52 | 6.00 to 6.52 | 6.00 to 6.52 |
| CCNc1cc(Nc2ccc(C(=O)N3CCN(C4CCCC4)CC3)c3c2OCC3)nc2[nH]cc(C(F)(F)F)c12 [Example 251, (4-cyclopentylpipe razin-1-yl)(7-((4-(ethylamino)-3-(trifluoromethyl)-1H-pyrrolo[2,3-b]pyridin-6-yl)amino)-2,3-dihydrobenzofuran-4-yl)methanone] | > 7.00 | > 7.00 | 6.52 to 7.00 |
| CCCNc1cc(Nc2ccc(C(=O)N3CCOCC3)c3c2OCCO3)nc2[nH]cc(Cl)c12 [Example 58, (8-((3-chloro-4-(propylamino)-1H-pyrrolo[2,3-b]pyridin-6-yl)amino)-2,3-dihydrobenzo[b] [1,4]dioxin-5-yl)(morpholino) methanone] | > 7.00 | 6.00 to 6.52 | 6.00 to 6.52 |
| COc1cc(S(=O)(=O)N2CCOCC2)ccc1Nc1cc(NC2CC2)c2c(Cl)c[nH]c2n1 [Example 68, 3-chloro-N^4-cyclopropyl-N^6-(2-methoxy-4-(morpholinosulfonyl)phenyl)-1H-pyrrolo[2,3-b]pyridine-4,6-diamine] | 6.00 to 6.52 | 6.00 to 6.52 | 6.00 to 6.52 |
| CCNc1cc(Nc2ccc(S(=O)(=O)N3CCC(N4CCOCC4)CC3)cc2OC)nc2[nH]ccc12 [Example 19, N^4-ethyl-N^6-(2-methoxy-4-((4-morpholinopiperidin-1-yl)sulfonyl)phenyl)-1H-pyrrolo[2,3-b]pyridine-4,6-diamine] | > 7.00 | 6.00 to 6.52 | 6.00 to 6.52 |
| CNc1cc(Nc2ccc(C(=O)N3CCOCC3)c3c2OCCO3)nc2[nH]cc(Cl)c12 [Example 56, (8-((3-chloro-4-(methylamino)-1H-pyrrolo[2,3-b]pyridin-6-yl)amino)-2,3-dihydrobenzo[b] [1,4]dioxin-5-yl)(morpholino) methanone 2,2,2-trifluoroacetate] | > 7.00 | 6.00 to 6.52 | 6.00 to 6.52 |
